The test system of experiment [1] is Columba livia. Put plainly: Effective dose injected to pigeons in drug discrimination test at a given period of 4.5 hours. In kind it is functional. The settings on record: in Columbidae.
Experiment [2] relates to Columba livia. Kind of experiment: Effective dose injected to pigeons in drug discrimination test at a given period of 1.5 hours. The experiment is classed as functional. The settings on record: in Columbidae.
Experiment [3] relates to Columba livia. Put plainly: Effective dose injected to pigeons in drug discrimination test at a given period of 9.0 hours. The experiment is classed as functional. The settings on record: in Columbidae.
Another experiment addresses Cannabinoid receptor (Rattus norvegicus, UniProt Q9QZN9+P20272). Put plainly: Compound was evaluated for the competitive inhibition of [3H]3-(1,1-Dimethyl-heptyl)-9-hydroxymethyl-6,6-dimethyl-6a,7,8,9,10,10a-hexahydro-6H-benzo[c]chromen-1-ol to cannabinoid receptor from synaptosomal membranes of rat whole brain.

The values below come from ChEMBL document CHEMBL1126063, “A novel probe for the cannabinoid receptor” (J Med Chem, 1992).

With `CCCCCc1cc(O)c2c(c1)OC(C)(C)[C@@H]1CCC(C)=C[C@@H]21` [DRONABINOL], the ED50 in the experiment on Columba livia [1] is 250 µg/kg; in the experiment on Columba livia [2], 160 µg/kg; in the experiment with Columba livia [3], 1210 µg/kg.
`CCCCCCC(C)(C)c1cc(O)c2c(c1)OC(C)(C)[C@@H]1CC=C(CO)CC21` (some centres not stated): the figures for the 50% effective dose (ED50) in the experiment on Columba livia [1], in the experiment with Columba livia [2] and in the experiment with Columba livia [3] were 2 µg/kg, 4 µg/kg and 2 µg/kg, respectively. This compound also showed a Ki at Cannabinoid receptor of 0.181 nM.
Consider `CCCCCCC(C)(C)c1cc(O)c2c(c1)OC(C)(C)[C@@H]1CC[C@@H](CO)CC21` (some centres not stated), for which the ED50 in the experiment on Columba livia [1] worked out at 2 µg/kg; in the experiment with Columba livia [2], 5 µg/kg; in the experiment with Columba livia [3], 3 µg/kg. Further, on Cannabinoid receptor, the Ki came to 0.045 nM.
As for `CCCCCCC(C)(C)c1cc(O)c2c(c1)OC(C)(C)C1CC=C(CO)CC21` (configuration not stated), on Cannabinoid receptor, the Ki was 466 nM.
